Non-standard residues stand in square brackets, D forms with d. Residues, ends and D or L forms follow the SMILES beside them. *: point of attachment. dPhe(4-Cl) = N[C@H](Cc1ccc(Cl)cc1)C(=O)O; d2Nal = N[C@H](Cc1ccc2ccccc2c1)C(=O)O; Nle = CCCC[C@H](N)C(=O)O; Ahp = NCCCCCCC(=O)O; Bn = c1ccc(C*)cc1
Key:
[1] = molecular target: T1, hMC5-R (Homo sapiens, UniProt P33032); experiment: Competitive inhibition binding assay, 125I-NDP-alpha-MSH, hMC5-R membranes; details: for percent inhibition of 125I-NDP-alpha-MSH binding, MC5-R: hMC5-R membranes, 0.4 nM 125I-NDP-alpha-MSH, mean of triplicate, peptide concentration not given; for Ki: membranes, read-out: Ki MC-5 Mem
T1 construct: expressed in transfected cells

[2] = molecular target: T2, MC4-R (Homo sapiens, UniProt P32245); experiment: Competitive inhibition binding assay, 125I-NDP-alpha-MSH, hMC4-R membranes; design: expressed in transfected cells; details: for percent inhibition of 125I-NDP-alpha-MSH binding, MC4-R: hMC4-R membranes, 0.4 nM 125I-NDP-alpha-MSH, mean of triplicate, peptide concentration not given; for Ki: membranes, read-out: Ki MC-4 Mem
[3] = molecular target: MC1-R (Mus musculus, UniProt Q01727); experiment: Competitive inhibition binding assay, 125I-NDP-alpha-MSH, B-16 mouse melanoma cell membranes; details: for Ki: B-16 cells, read-out: Ki MC-1 B-16; for percent inhibition of 125I-NDP-alpha-MSH binding, MC1-R (B-16): B-16 mouse melanoma cell membranes, 0.4 nM 125I-NDP-alpha-MSH, mean of triplicate, peptide concentration not given; for MC1-R (B-16) inhibition of 125I-NDP-alpha-MSH binding: peptide conc. 1 μM
[4] = molecular target: T2, MC4-R; experiment: Functional evaluation: intracellular cAMP accumulation in HEK-293 cells expressing MC4-R (agonist/antagonist status); assay type: cell-based; design: expressed in transfected cells; host or cells: HEK-293; details: with or without alpha-MSH, 1 hour at 37° C
Description: The Ki (nM) of certain peptides were determined, as was the agonist/antagonist status with respect to MC4-R. Functional evaluation of peptides at MC4-R was performed by measuring the accumulation of intracellular cAMP in HEK-293 cells expressing MC4-R. Antagonistic activity was determined by measuring the inhibition of α-MSH-induced cAMP levels following exposure to the compounds. Cells, suspended in Earle's Balanced Salt Solution containing 10 mM HEPES, pH 7.5, 5 mM MgCl2, 1 mM glutamine, 0.1% albumin and 0.6 mM 3-isobutyl-1-methyl-xanthine, a phosphodiesterase inhibitor, were plated in 96 well plates at a density of 0.5×10^5 cells per well. Cells were incubated with the test peptides in the presence or absence of α-MSH for 1 hour at 37° C. cAMP levels were measured by EIA (Amersham) in the cell lysates. Data analysis and EC50 values were determined using nonlinear regression analysis with Prism Graph-Pad software.

[5] = molecular target: T3, hMC3-R (Homo sapiens, UniProt P41968); experiment: Competitive inhibition binding assay, 125I-NDP-alpha-MSH, hMC3-R membranes; details: for percent inhibition of 125I-NDP-alpha-MSH binding, MC3-R: hMC3-R membranes, 0.4 nM 125I-NDP-alpha-MSH, mean of triplicate, peptide concentration not given; for Ki: membranes, read-out: Ki MC-3 Mem
T3 construct: expressed in transfected cells
T3 sequence (P41968 whole entry): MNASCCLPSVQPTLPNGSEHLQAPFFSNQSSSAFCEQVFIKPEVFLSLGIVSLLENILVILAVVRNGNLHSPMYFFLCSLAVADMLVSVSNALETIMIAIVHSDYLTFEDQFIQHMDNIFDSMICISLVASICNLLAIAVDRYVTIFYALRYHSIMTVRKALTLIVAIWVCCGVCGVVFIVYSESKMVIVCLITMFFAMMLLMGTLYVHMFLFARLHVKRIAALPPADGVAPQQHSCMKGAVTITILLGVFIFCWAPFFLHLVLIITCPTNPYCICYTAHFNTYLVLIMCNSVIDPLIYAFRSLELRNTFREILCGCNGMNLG

T1 sequence (P33032 whole entry): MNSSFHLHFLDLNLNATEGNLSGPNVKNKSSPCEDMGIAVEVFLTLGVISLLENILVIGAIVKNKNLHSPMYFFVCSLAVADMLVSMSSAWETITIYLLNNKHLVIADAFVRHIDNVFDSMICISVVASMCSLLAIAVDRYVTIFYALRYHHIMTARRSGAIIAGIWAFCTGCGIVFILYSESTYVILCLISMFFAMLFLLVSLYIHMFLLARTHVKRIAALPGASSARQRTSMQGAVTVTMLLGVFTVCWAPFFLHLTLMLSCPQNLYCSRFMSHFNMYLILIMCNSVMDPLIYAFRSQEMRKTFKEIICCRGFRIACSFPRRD
T2 sequence (P32245 whole entry): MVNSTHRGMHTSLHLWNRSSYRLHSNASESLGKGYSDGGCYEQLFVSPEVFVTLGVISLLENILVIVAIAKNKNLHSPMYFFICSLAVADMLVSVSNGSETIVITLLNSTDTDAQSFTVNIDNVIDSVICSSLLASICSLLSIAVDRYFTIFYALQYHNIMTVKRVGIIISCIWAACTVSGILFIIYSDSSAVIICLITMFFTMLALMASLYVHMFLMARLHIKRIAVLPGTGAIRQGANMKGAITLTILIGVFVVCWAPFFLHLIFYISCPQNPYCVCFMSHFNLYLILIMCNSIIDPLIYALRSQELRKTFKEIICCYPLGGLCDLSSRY
Sequence of MC1-R (Q01727 whole entry): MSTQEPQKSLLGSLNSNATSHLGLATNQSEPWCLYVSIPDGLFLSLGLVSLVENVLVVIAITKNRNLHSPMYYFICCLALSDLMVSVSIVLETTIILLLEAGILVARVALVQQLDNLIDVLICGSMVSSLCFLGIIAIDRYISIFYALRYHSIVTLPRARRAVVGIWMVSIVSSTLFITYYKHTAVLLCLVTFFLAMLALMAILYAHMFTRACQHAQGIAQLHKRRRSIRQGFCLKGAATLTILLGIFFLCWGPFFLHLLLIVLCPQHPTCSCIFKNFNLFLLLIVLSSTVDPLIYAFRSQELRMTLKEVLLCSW

Compound	percent inhibition of 125I-NDP-alpha-MSH binding, MC5-R [1] [%]	percent inhibition of 125I-NDP-alpha-MSH binding, MC4-R [2] [%]	percent inhibition of 125I-NDP-alpha-MSH binding, MC3-R [5] [%]	percent inhibition of 125I-NDP-alpha-MSH binding, MC1-R (B-16) [3] [%]	also measured
7′-amino-heptanoyl-Ser(Bzl)-D-Phe(4-Cl)-Arg-Trp-Asp-OH		67			
C[C@H](NC(=O)[C@H](Cc1c[nH]c2ccccc12)NC(=O)[C@H](CCCNC(=N)N)NC(=O)[C@@H](Cc1ccc(Cl)cc1)NC(=O)[C@H](COCc1ccccc1)NC(=O)CCCCCCN)C(N)=O [7′-amino-heptanoyl-Ser(Bzl)-D-Phe(4-Cl)-Arg-Trp-Ala-NH2] (H-[Ahp]S(Bn)[dPhe(4-Cl)]RWA-NH2)	79	100	93		Ki [3]: 142 nM; Ki [1]: 112 nM; HEK-293 (MC4-R) cells Classification [4]: Agonist; Ki [2]: 2 nM; Ki [5]: 37 nM
4′-biphenyl-acetyl-Ala-D-Phe(4-Cl)-Arg-Trp-NH2	37	88	54	0	
Ph-(CH2)2NH-CO(CH2)2CO-D-Phe(4-Cl)-Arg-Trp-NH2				67	
N=C(N)NCCC[C@H](NC(=O)[C@@H](Cc1ccc2ccccc2c1)NC(=O)[C@H](COCc1ccccc1)NC(=O)CCCCCCN)C(=O)N[C@H](Cc1c[nH]c2ccccc12)C(N)=O [7′-amino-heptanoyl-Ser(Bzl)-D-Nal 2-Arg-D-Trp-NH2] (H-[Ahp]S(Bn)[d2Nal]R[dW]-NH2)	82	100	86	-8	Ki [3]: 1300 nM; Ki [1]: 90 nM; HEK-293 (MC4-R) cells Classification [4]: Antagonist; Ki [2]: 6 nM; Ki [5]: 70 nM
2′-naphthylacetyl-Tle-D-Phe(4-Cl)-Arg-Trp-NH2				67	
7′-amino-heptanoyl-Ser(Bzl)-D-Phe(4-Cl)-Arg-4-phenyl-piperidine-4-carbonamide	25	13	2	5	
2′-naphthylacetyl-beta-Ala-D-Nal 2-Arg-Trp-NH2			58		
Ac-[Nle]AH[dF]RW-NH2					MC1-R (B-16) inhibition of 125I-NDP-alpha-MSH binding [3]: 101%
Ac-[Nle]AH[dF]RWC-NH2					MC3-R inhibition of 125I-NDP-alpha-MSH binding ([5]; peptide conc. 1 μM): 58%
7′-amino-heptanoyl-Ala-D-Phe(4-Cl)-Arg-Trp-NH2				58	
7′-amino-heptanoyl-Ser(Bzl)-D-Phe(4-Cl)-Arg-2′-(4″-methylphenyl)ethylamide			67		
N=C(N)NCCC[C@H](NC(=O)[C@@H](Cc1ccc(Cl)cc1)NC(=O)[C@H](COCc1ccccc1)NC(=O)CCCCCCN)C(=O)N[C@@H](Cc1c[nH]c2ccccc12)C(=O)N[C@@H](CC(=O)O)C(N)=O [7′-amino-heptanoyl-Ser(Bzl)-D-Phe(4-Cl)-Arg-Trp-Asp-NH2] (H-[Ahp]S(Bn)[dPhe(4-Cl)]RWD-NH2)	48	98	73		Ki [3]: 760 nM; Ki [1]: 596 nM; HEK-293 (MC4-R) cells Classification [4]: Agonist; Ki [2]: 9 nM; Ki [5]: 191 nM
7′-amino-heptanoyl-Ser(Bzl)-D-Phe(4-Cl)-Arg-2′,4′-dichlorobenzylamide	-6				
7′-amino-heptanoyl-Ser(Bzl)-D-Phe(4-Cl)-Arg-Tic-NH2				45	
7′-amino-heptanoyl-Ser(Bzl)-D-Phe(4-Cl)-Arg-Histamide	-2				
7′-amino-heptanoyl-Ser(Bzl)-D-Phe(4-Cl)-alpha-(N-amidino-4′-piperidine)Gly-Trp-NH2	16	26	8	3	
3′,4′-Cl2phenylacetyl-Ala-D-Phe(4-Cl)-Lys-Trp-NH2				45	
Ac-[Nle]AH[dF]RCW-NH2					MC1-R (B-16) inhibition of 125I-NDP-alpha-MSH binding [3]: 101%

Second part, led by results:

percent inhibition of 125I-NDP-alpha-MSH binding, MC5-R [1] [%]	percent inhibition of 125I-NDP-alpha-MSH binding, MC4-R [2] [%]	percent inhibition of 125I-NDP-alpha-MSH binding, MC3-R [5] [%]	percent inhibition of 125I-NDP-alpha-MSH binding, MC1-R (B-16) [3] [%]	Compound	also measured
-6				3′,4′-Cl2phenylacetyl-Ala-D-Phe(4-Cl)-Arg-2′-(4″-methylphenyl)ethylamide	
		101		3′-CF3phenyl-acetyl-Ala-D-Phe(4-Cl)-Arg-Trp-NH2	
	67			7′-amino-heptanoyl-Ser(Bzl)-D-Phe(4-Cl)-Arg-Trp-OH	
	45			4′-phenylbutylaminocarbonyl-D-Phe(4-Cl)-Arg-Trp-NH2	
58				2′-naphthylacetyl-D-Phe(4-Cl)-Arg-Trp-NH2	
54	100	37	34	N=C(N)NCCC[C@H](NC(=O)[C@@H](Cc1ccc(Cl)cc1)NC(=O)[C@H](COCc1ccccc1)NC(=O)CCCCCCN)C(=O)N[C@@H](Cc1c[nH]c2ccccc12)C(=O)N[C@@H](CC(=O)O)C(=O)N[C@@H](Cc1ccccc1)C(N)=O [7′-amino-heptanoyl-Ser(Bzl)-D-Phe(4-Cl)-Arg-Trp-Asp-Phe-NH2] (H-[Ahp]S(Bn)[dPhe(4-Cl)]RWDF-NH2)	Ki [3]: 269 nM; Ki [1]: 386 nM; HEK-293 (MC4-R) cells Classification [4]: Agonist; Ki [2]: 12 nM; Ki [5]: 318 nM
67				3′-CF3phenylacetyl-Ala-D-Phe(4-Cl)-Lys-Trp-NH2	
	58			2′-naphthylacetyl-Inp-D-Phe(4-Cl)-Arg-Trp-NH2	
			45	2′-naphthylacetyl-Ala-D-Phe(4-Cl)-Arg-Trp-NH2	
82	99	93	4	N=C(N)NCCC[C@H](NC(=O)[C@@H](Cc1ccc2ccccc2c1)NC(=O)[C@H](COCc1ccccc1)NC(=O)CCCCCCN)C(=O)N[C@@H](Cc1c[nH]c2ccccc12)C(N)=O [7′-amino-heptanoyl-Ser(Bzl)-D-Nal 2-Arg-Trp-NH2] (H-[Ahp]S(Bn)[d2Nal]RW-NH2)	Ki [3]: 1870 nM; Ki [1]: 102 nM; HEK-293 (MC4-R) cells Classification [4]: Antagonist; Ki [2]: 4 nM; Ki [5]: 50 nM

— patent US7417027B2, “Linear and cyclic melanocortin receptor-specific peptides” (Palatin Technologies, Inc., priority 2001, dated 2008)
